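Briefly, cells in 96-well plates were exposed to five compound concentrations for 48 h, and endpoints were estimated by linear interpolation. GI50 = concentration required for 50% inhibition of growth.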 Calls of active or inactive are those of the source. Rule as the data show it: active = GI50 up to about 1.1 µM and inactive = higher.
Tests used:
Test in all cases: NCI tumour cell line growth inhibition, 48 h
KM12 = system: KM12
NCI-H460 = system: NCI-H460
CCRF-CEM = system: CCRF-CEM
SK-MEL-2 = system: SK-MEL-2
SK-OV-3 = system: SK-OV-3
M14 = system: M14
IGROV-1 = system: IGROV-1
MDA-MB-231 = system: MDA-MB-231
SN12C = system: SN12C
HT-29 = system: HT-29
UACC-257 = system: UACC-257
SF-295 = system: SF-295
OVCAR-5 = system: OVCAR-5
MDA-N = system: MDA-N
SK-MEL-28 = system: SK-MEL-28
U-251 = system: U-251
HCT-116 = system: HCT-116
RPMI-8226 = system: RPMI-8226
HCC 2998 = system: HCC 2998
LOX IMVI = system: LOX IMVI
HL-60 = system: HL-60
SK-MEL-5 = system: SK-MEL-5
NCI-H522 = system: NCI-H522
ACHN = system: ACHN
DU-145 = system: DU-145
SNB-19 = system: SNB-19
HOP-62 = system: HOP-62
NCI/ADR-RES = system: NCI/ADR-RES
OVCAR-4 = system: OVCAR-4
HCT-15 = system: HCT-15
786-0 = system: 786-0
Hs-578T = system: Hs-578T
UACC-62 = system: UACC-62
SR = system: SR
SW-620 = system: SW-620
PC-3 = system: PC-3
SNB-75 = system: SNB-75
HOP-92 = system: HOP-92
OVCAR-8 = system: OVCAR-8
NCI-H226 = system: NCI-H226
MCF7 = system: MCF7
BT-549 = system: BT-549
A498 = system: A498
SF-268 = system: SF-268
TK-10 = system: TK-10
MDA-MB-435 = system: MDA-MB-435
UO-31 = system: UO-31
Malme-3M = system: Malme-3M
K562 = system: K562
EKVX = system: EKVX
SF-539 = system: SF-539
RXF 393 = system: RXF 393
CAKI-1 = system: CAKI-1
A549 = system: A549
NCI-H23 = system: NCI-H23
T47D = system: T47D
COLO 205 = system: COLO 205
OVCAR-3 = system: OVCAR-3
MOLT-4 = system: MOLT-4
M19-MEL = system: M19-MEL
DMS-114 = system: DMS-114
KM-20L2 = system: KM-20L2
DMS-273 = system: DMS-273
SNB-78 = system: SNB-78

Cc1cc2nc(CC(C(F)(F)F)C(F)(F)F)oc2cc1C
GI50 (KM12): 3000 nM (inactive)
GI50 (NCI-H460): 3770 nM (inactive)
GI50 (CCRF-CEM): 16 nM (active)
GI50 (SK-MEL-2): 2810 nM (inactive)
GI50 (SK-OV-3): 14100 nM (inactive)
GI50 (M14): 1070 nM (active)
GI50 (IGROV-1): 1970 nM (inactive)
GI50 (MDA-MB-231): 2450 nM (inactive)
GI50 (SN12C): 1030 nM (active)
GI50 (HT-29): 973 nM (active)
GI50 (UACC-257): 4460 nM (inactive)
GI50 (SF-295): 4760 nM (inactive)
GI50 (OVCAR-5): 7410 nM (inactive)
GI50 (MDA-N): 1910 nM (inactive)
GI50 (SK-MEL-28): 3240 nM (inactive)
GI50 (U-251): 3150 nM (inactive)
GI50 (HCT-116): 1000 nM (active)
GI50 (RPMI-8226): 93.1 nM (active)
GI50 (HCC 2998): 3560 nM (inactive)
GI50 (LOX IMVI): 209 nM (active)
GI50 (HL-60): 968 nM (active)
GI50 (SK-MEL-5): 4320 nM (inactive)
GI50 (NCI-H522): 184 nM (active)
GI50 (ACHN): 7260 nM (inactive)
GI50 (DU-145): 4360 nM (inactive)
GI50 (SNB-19): 5090 nM (inactive)
GI50 (HOP-62): 3480 nM (inactive)
GI50 (NCI/ADR-RES): 1710 nM (inactive)
GI50 (OVCAR-4): 2190 nM (inactive)
GI50 (HCT-15): 3470 nM
GI50 (786-0): 474 nM (active)
GI50 (Hs-578T): 1830 nM (inactive)
GI50 (UACC-62): 1420 nM (inactive)
GI50 (SR): 27.6 nM (active)
GI50 (SW-620): 608 nM (active)
GI50 (PC-3): 1960 nM (inactive)
GI50 (SNB-75): 1610 nM (inactive)
GI50 (HOP-92): 7500 nM (inactive)
GI50 (OVCAR-8): 1120 nM (active)
GI50 (NCI-H226): 1880 nM (inactive)
GI50 (MCF7): 2540 nM (inactive)
GI50 (BT-549): 452 nM (active)
GI50 (A498): 5710 nM (inactive)
GI50 (SF-268): 2490 nM (inactive)
GI50 (TK-10): 5210 nM (inactive)
GI50 (MDA-MB-435): 1960 nM (inactive)
GI50 (UO-31): 7690 nM (inactive)
GI50 (Malme-3M): 3340 nM (inactive)
GI50 (K562): 93.1 nM (active)
GI50 (EKVX): 2240 nM (inactive)
GI50 (SF-539): 2730 nM (inactive)
GI50 (RXF 393): 2510 nM (inactive)
GI50 (CAKI-1): 2070 nM (inactive)
GI50 (A549): 5790 nM (inactive)
GI50 (NCI-H23): 1370 nM (inactive)
GI50 (T47D): 308 nM (active)
GI50 (COLO 205): 1540 nM (inactive)
GI50 (OVCAR-3): 2650 nM (inactive)

C=C(C)C1CC=C(C)[C@](O)(C2(O)C[C@H](C(=C)C)CC=C2C)C1 (some centres not stated)
GI50 (KM12): > 100000 nM (inactive)
GI50 (NCI-H460): > 100000 nM (inactive)
GI50 (CCRF-CEM): > 100000 nM (inactive)
GI50 (MOLT-4): > 100000 nM (inactive)
GI50 (SK-OV-3): > 100000 nM (inactive)
GI50 (M14): > 100000 nM (inactive)
GI50 (IGROV-1): > 100000 nM (inactive)
GI50 (HT-29): > 100000 nM (inactive)
GI50 (UACC-257): > 100000 nM (inactive)
GI50 (SF-295): > 100000 nM (inactive)
GI50 (OVCAR-5): > 100000 nM (inactive)
GI50 (SK-MEL-28): > 100000 nM (inactive)
GI50 (U-251): > 100000 nM (inactive)
GI50 (HCT-116): > 100000 nM (inactive)
GI50 (HL-60): > 100000 nM (inactive)
GI50 (NCI-H522): > 100000 nM (inactive)
GI50 (M19-MEL): > 100000 nM (inactive)
GI50 (ACHN): > 100000 nM (inactive)
GI50 (SNB-19): > 100000 nM (inactive)
GI50 (HOP-62): > 100000 nM (inactive)
GI50 (UACC-62): > 100000 nM (inactive)
GI50 (SR): > 100000 nM (inactive)
GI50 (DMS-114): > 100000 nM (inactive)
GI50 (HOP-92): > 100000 nM (inactive)
GI50 (OVCAR-8): > 100000 nM (inactive)
GI50 (A498): > 100000 nM (inactive)
GI50 (TK-10): > 100000 nM (inactive)
GI50 (KM-20L2): > 100000 nM (inactive)
GI50 (DMS-273): > 100000 nM (inactive)
GI50 (SNB-78): > 100000 nM (inactive)
GI50 (UO-31): > 100000 nM (inactive)
GI50 (EKVX): > 100000 nM (inactive)
GI50 (RXF 393): > 100000 nM (inactive)
GI50 (A549): > 100000 nM (inactive)
GI50 (NCI-H23): > 100000 nM (inactive)

CC(C)(Cl)C(Br)CC/C(CBr)=C(/Cl)CCl.CC(C)(Cl)C(Br)CC/C(CBr)=C(\Cl)CCl (configuration not stated)
GI50 (KM12): 2020 nM (inactive)
GI50 (NCI-H460): 6380 nM (inactive)
GI50 (CCRF-CEM): 126 nM (active)
GI50 (MOLT-4): 417 nM (active)
GI50 (SK-MEL-2): 2230 nM (inactive)
GI50 (SK-OV-3): 3360 nM (inactive)
GI50 (M14): 1490 nM (inactive)
GI50 (IGROV-1): 782 nM (active)
GI50 (MDA-MB-231): 1830 nM (inactive)
GI50 (SN12C): 497 nM (active)
GI50 (HT-29): 2060 nM (inactive)
GI50 (UACC-257): 2130 nM (inactive)
GI50 (SF-295): > 10000 nM (inactive)
GI50 (OVCAR-5): 5130 nM (inactive)
GI50 (MDA-N): 1800 nM (inactive)
GI50 (SK-MEL-28): 2110 nM (inactive)
GI50 (U-251): 1730 nM (inactive)
GI50 (HCT-116): 1820 nM (inactive)
GI50 (RPMI-8226): 1640 nM (inactive)
GI50 (HCC 2998): 2860 nM (inactive)
GI50 (LOX IMVI): 1610 nM (inactive)
GI50 (HL-60): 940 nM (active)
GI50 (SK-MEL-5): 1820 nM (inactive)
GI50 (NCI-H522): 1450 nM (inactive)
GI50 (ACHN): 5640 nM (inactive)
GI50 (DU-145): > 10000 nM (inactive)
GI50 (SNB-19): 6150 nM (inactive)
GI50 (HOP-62): 3920 nM (inactive)
GI50 (NCI/ADR-RES): 2210 nM (inactive)
GI50 (OVCAR-4): 2740 nM (inactive)
GI50 (HCT-15): 2290 nM
GI50 (786-0): 1660 nM (inactive)
GI50 (Hs-578T): 3220 nM (inactive)
GI50 (UACC-62): 1500 nM (inactive)
GI50 (SR): 331 nM (active)
GI50 (SW-620): 2640 nM (inactive)
GI50 (PC-3): 2330 nM (inactive)
GI50 (SNB-75): 2740 nM (inactive)
GI50 (HOP-92): 1900 nM (inactive)
GI50 (OVCAR-8): 1750 nM (inactive)
GI50 (NCI-H226): 975 nM (active)
GI50 (MCF7): 2130 nM (inactive)
GI50 (BT-549): 2010 nM (inactive)
GI50 (A498): 100 nM (active)
GI50 (SF-268): 2250 nM (inactive)
GI50 (TK-10): 4180 nM (inactive)
GI50 (MDA-MB-435): 1790 nM (inactive)
GI50 (UO-31): 1950 nM (inactive)
GI50 (Malme-3M): 1900 nM (inactive)
GI50 (K562): 1010 nM (active)
GI50 (EKVX): 6170 nM (inactive)
GI50 (SF-539): 2070 nM (inactive)
GI50 (RXF 393): 2140 nM (inactive)
GI50 (CAKI-1): 2410 nM (inactive)
GI50 (A549): > 10000 nM (inactive)
GI50 (NCI-H23): 2430 nM (inactive)
GI50 (T47D): 2320 nM (inactive)
GI50 (COLO 205): 607 nM (active)
GI50 (OVCAR-3): 2320 nM (inactive)
